According to ChEMBL document CHEMBL6074661, “Structural Modification and Pharmacological Evaluation of (Thiadiazol-2-yl)pyrazines as Novel Piezo1 Agonists for the Intervention of Disuse Osteoporosis” (J Med Chem, 2024):
Values after ≈ are worked out from the molar mass of the structure shown. Active and inactive are the calls of the source. The rule behind the calls is not given here.

Assays:
Rattus norvegicus [1] = experiment: Induction of osteogenesis in hind-limb unloading Sprague-Dawley rat model assessed as increase in ALP fluorescent area at 5 uM/kg, ip administered on day 1, 4, 7, 10, 13 and measured on day 14 by immunofluorescence based analysis; format: functional, organism-based; details: time 14.0 day, tested as the 2H-labelled form
Rattus norvegicus [2] = experiment: Inhibition of disuse osteoporosis in hind-limb unloading Sprague-Dawley rat model assessed as increase in bone volume fraction at 5 uM/kg, ip administered on day 1, 4, 7, 10, 13 and measured on day 14 by micro-CT analysis; format: functional, organism-based; details: time 14.0 day, tested as the 2H-labelled form
BMSC [3] = experiment: Induction of osteogenesis in BMSC cells (unknown origin) assessed as increase in Runx2 mRNA level incubated for 3 days by RT-qPCR analysis; format: functional, cell-based; details: dose 3-5 µM, time 3.0 day, tested as the 2H-labelled form
Rattus norvegicus [4] = experiment: Inhibition of disuse osteoporosis in hind-limb unloading Sprague-Dawley rat model assessed as decrease in trabecular separation at 5 uM/kg, ip administered on day 1, 4, 7, 10, 13 and measured on day 14 by micro-CT analysis; format: functional, organism-based; details: time 14.0 day, tested as the 2H-labelled form
BMSC [5] = experiment: Induction of osteogenesis in BMSC cells (unknown origin) assessed as increase in Osx mRNA level at 5 uM incubated for 3 days by RT-qPCR analysis; format: functional, cell-based; details: time 3.0 day, tested as the 2H-labelled form
[6] = biological target: Piezo-type mechanosensitive ion channel component 1 (Mus musculus) (UniProt E2JF22); experiment: Agonist activity at Piezo1 in mouse C3H 10T1/2 cells assessed as influx of calcium ions by measuring change in ratio of calcium fluorescence at 20 uM incubated for 2 hrs by Cal-bryte 520 AM dye based analysis relative to control; format: cell-based
Chain of Piezo-type mechanosensitive ion channel component 1 (Mus musculus) (E2JF22 whole entry): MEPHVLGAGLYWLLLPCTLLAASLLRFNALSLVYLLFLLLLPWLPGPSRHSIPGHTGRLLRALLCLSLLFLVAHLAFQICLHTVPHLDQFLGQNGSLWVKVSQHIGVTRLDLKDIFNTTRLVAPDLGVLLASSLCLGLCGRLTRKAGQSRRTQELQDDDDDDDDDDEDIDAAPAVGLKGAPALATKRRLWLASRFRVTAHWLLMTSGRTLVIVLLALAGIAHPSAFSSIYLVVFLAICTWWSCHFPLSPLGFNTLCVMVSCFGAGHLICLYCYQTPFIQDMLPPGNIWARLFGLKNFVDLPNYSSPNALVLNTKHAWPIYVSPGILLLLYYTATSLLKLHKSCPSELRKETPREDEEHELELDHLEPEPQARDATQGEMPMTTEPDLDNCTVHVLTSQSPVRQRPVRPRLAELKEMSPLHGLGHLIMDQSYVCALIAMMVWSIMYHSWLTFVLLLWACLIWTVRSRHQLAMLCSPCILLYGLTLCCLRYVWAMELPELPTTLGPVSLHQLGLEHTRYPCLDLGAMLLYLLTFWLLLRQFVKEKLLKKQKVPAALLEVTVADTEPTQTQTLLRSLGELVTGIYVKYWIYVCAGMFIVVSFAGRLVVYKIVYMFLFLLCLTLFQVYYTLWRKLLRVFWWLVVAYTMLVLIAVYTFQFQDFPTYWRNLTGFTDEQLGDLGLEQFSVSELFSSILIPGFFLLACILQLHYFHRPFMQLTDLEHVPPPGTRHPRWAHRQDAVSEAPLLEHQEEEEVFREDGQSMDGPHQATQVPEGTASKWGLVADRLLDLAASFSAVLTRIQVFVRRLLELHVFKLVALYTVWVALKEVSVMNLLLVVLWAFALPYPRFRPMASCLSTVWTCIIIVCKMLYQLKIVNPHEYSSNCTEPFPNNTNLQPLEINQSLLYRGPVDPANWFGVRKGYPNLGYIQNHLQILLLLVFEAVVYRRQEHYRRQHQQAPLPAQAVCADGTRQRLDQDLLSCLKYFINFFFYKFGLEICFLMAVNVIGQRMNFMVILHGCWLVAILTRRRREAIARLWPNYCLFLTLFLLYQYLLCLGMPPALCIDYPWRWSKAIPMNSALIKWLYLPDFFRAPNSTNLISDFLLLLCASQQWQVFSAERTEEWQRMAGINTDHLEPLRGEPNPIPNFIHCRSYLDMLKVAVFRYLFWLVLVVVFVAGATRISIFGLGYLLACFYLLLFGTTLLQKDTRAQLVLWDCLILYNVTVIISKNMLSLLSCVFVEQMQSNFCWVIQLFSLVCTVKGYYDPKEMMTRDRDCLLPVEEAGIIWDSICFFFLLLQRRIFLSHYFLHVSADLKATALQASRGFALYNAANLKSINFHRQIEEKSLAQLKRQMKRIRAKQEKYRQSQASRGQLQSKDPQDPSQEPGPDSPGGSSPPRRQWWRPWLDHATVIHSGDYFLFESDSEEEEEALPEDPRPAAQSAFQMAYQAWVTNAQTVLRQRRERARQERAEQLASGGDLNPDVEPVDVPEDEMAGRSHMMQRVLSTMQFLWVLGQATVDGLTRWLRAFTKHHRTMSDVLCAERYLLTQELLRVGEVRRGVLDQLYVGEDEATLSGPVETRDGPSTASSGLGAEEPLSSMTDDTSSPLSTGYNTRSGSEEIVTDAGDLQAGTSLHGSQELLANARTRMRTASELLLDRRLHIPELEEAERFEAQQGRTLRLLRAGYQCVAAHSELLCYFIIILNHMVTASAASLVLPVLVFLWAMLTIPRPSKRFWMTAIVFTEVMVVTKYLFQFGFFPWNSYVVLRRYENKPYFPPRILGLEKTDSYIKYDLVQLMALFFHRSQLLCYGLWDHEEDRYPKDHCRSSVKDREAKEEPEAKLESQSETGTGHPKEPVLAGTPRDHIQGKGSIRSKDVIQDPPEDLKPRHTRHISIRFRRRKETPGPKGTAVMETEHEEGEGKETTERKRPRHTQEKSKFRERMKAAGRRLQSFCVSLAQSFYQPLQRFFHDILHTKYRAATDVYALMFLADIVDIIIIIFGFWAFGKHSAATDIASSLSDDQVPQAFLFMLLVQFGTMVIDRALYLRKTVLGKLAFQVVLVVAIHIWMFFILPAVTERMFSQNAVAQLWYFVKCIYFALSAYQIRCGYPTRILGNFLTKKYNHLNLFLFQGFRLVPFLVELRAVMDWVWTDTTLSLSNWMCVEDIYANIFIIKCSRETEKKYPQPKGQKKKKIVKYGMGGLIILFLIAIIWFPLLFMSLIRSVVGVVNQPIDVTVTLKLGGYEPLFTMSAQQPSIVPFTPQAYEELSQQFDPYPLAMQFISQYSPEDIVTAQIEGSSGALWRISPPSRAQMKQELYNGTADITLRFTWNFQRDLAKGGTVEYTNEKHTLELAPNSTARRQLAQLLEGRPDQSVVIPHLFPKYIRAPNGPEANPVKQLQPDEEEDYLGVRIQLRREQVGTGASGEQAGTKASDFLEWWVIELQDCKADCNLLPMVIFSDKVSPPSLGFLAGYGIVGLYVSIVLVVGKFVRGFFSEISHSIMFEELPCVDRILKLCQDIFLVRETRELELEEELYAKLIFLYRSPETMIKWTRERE

Rattus norvegicus [7] = experiment: Inhibition of disuse osteoporosis in hind-limb unloading Sprague-Dawley rat model assessed as increase in trabecular number at 5 uM/kg, ip administered on day 1, 4, 7, 10, 13 and measured on day 14 by micro-CT analysis; format: functional, organism-based; details: time 14.0 day, tested as the 2H-labelled form
[8] = biological target: Piezo-type mechanosensitive ion channel component 1 (Mus musculus) (UniProt E2JF22); experiment: Potency index, ratio of Yoda1 EC50 to test compound […] for agonist activity at Piezo1 in mouse C3H 10T1/2 cells assessed as influx of calcium ions incubated for 2 hrs by Cal-bryte 520 AM dye based analysis; format: cell-based; details: filed as agonist, tested as the 2H-labelled form
[9] = biological target: Piezo-type mechanosensitive ion channel component 1 (Rattus norvegicus) (UniProt Q0KL00); experiment: Agonist activity at Piezo1 in rat BMSC cells assessed as increase in p-Erk level at 5 uM incubated for 5 mins by Western blot analysis; format: cell-based; details: filed as activator, tested as the 2H-labelled form
[10] = biological target: T1, Piezo-type mechanosensitive ion channel component 1 (Mus musculus, UniProt E2JF22); experiment: Agonist activity at mouse Piezo1 transfected in HEK293T cells expressing PZ1 mutant by fluorescence based assay; format: cell-based
Target sequence in this assay (E2JF22 whole entry, looked up): as the sequence (E2JF22 whole entry) above

[11] = biological target: T2, Piezo-type mechanosensitive ion channel component 1 (Homo sapiens, UniProt Q92508); experiment: Potency index, ratio of Yoda1 EC50 to test compound EC50 for agonist activity at Piezo1 (unknown origin); details: filed as agonist
T2 sequence (Q92508 whole entry): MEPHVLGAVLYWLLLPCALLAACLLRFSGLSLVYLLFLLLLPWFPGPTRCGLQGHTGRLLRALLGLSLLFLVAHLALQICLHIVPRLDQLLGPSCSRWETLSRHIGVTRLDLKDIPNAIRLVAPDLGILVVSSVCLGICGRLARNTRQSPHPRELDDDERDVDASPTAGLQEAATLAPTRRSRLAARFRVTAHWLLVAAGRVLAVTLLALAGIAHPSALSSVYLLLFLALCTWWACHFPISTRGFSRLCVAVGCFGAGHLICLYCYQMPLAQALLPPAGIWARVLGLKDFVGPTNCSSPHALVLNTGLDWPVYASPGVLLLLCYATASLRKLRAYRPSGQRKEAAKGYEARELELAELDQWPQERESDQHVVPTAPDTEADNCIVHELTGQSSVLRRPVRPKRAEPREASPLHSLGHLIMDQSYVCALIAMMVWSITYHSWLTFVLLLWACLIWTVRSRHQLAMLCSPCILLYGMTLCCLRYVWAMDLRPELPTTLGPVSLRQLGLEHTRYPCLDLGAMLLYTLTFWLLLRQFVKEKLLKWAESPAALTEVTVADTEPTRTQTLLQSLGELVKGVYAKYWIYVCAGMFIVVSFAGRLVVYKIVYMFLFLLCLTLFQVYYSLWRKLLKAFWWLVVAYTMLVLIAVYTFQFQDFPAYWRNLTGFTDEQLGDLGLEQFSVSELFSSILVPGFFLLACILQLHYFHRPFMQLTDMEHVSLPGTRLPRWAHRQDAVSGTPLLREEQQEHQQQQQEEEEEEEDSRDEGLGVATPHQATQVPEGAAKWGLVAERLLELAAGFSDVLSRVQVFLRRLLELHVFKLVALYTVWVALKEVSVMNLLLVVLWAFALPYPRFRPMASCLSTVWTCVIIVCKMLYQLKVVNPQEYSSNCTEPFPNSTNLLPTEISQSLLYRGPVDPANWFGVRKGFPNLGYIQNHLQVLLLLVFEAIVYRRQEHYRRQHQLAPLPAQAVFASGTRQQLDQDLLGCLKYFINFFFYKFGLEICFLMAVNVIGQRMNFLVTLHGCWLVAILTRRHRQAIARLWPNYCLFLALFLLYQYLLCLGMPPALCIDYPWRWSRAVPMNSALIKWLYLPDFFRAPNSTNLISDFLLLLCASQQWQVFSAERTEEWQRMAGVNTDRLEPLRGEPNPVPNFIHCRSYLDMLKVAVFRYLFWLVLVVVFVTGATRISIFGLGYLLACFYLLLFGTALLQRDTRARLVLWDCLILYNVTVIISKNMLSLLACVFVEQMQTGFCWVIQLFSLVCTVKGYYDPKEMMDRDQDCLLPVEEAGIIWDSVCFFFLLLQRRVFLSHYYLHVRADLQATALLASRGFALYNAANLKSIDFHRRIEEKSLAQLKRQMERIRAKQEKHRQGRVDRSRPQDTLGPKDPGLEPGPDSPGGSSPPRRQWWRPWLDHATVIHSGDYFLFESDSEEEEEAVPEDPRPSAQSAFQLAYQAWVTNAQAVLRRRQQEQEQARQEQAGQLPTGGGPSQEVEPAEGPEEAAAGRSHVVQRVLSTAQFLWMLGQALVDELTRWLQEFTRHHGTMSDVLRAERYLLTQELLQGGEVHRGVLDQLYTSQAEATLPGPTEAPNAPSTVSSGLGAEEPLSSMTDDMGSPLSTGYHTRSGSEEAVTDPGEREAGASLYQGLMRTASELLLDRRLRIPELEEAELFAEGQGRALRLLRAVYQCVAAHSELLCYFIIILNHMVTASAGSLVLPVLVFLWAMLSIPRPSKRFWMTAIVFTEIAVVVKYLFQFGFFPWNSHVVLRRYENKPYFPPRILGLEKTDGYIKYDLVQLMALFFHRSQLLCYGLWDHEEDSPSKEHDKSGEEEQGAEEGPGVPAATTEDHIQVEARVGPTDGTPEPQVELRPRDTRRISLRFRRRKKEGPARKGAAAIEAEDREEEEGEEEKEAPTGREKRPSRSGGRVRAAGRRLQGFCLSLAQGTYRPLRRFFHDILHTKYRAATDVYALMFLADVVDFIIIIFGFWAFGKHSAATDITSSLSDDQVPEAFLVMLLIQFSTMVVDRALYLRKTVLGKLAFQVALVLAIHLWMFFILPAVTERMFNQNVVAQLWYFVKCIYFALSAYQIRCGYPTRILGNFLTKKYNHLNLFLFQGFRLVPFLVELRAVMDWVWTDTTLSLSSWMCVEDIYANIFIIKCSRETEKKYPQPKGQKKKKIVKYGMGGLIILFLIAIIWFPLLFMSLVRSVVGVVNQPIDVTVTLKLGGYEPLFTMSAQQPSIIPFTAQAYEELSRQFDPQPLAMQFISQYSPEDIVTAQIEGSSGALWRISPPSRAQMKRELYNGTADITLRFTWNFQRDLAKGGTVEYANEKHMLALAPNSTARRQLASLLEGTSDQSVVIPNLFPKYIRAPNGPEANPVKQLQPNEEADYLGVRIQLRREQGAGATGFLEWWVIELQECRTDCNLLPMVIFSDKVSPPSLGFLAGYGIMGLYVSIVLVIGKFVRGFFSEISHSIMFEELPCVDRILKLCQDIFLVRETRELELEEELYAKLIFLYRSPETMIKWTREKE

[12] = Apparent permeability in MDCK cells; format: ADME, cell-based, Canis lupus familiaris; details: dog
[13] = Aqueous solubility of compound at pH 7.4 incubated for 10 mins by HPLC analysis; format: physicochemical; details: aqueous medium
[14] = Toxicity in hind-limb unloading Sprague-Dawley rat model assessed as change in kidney function at 5 uM/kg, ip administered on day 1, 4, 7, 10, 13 and measured on day 14; format: organism-based; details: in vivo, 336 h, time 14 day
[15] = biological target: T1, Piezo-type mechanosensitive ion channel component 1; experiment: Agonist activity at Piezo1 in mouse C3H 10T1/2 cells assessed as influx of calcium ions incubated for 2 hrs by Cal-bryte 520 AM dye based analysis; format: cell-based
Target sequence in this assay (E2JF22 whole entry): as the sequence (E2JF22 whole entry) above

[16] = Metabolic stability in human liver microsomes assessed as intrinsic clearance at 10 uM measured for 60 mins by LC-MS/MS analysis; format: ADME, Microsome; details: read-out: CLH
[17] = Metabolic stability in mouse liver microsomes assessed as half life at 10 uM measured for 60 mins by LC-MS/MS analysis; format: ADME, Microsome
[18] = Toxicity in hind-limb unloading Sprague-Dawley rat model assessed as change in liver function at 5 uM/kg, ip administered on day 1, 4, 7, 10, 13 and measured on day 14; format: organism-based; details: in vivo, 336 h, time 14 day
[19] = Metabolic stability in human liver microsomes assessed as half life at 10 uM measured for 60 mins by LC-MS/MS analysis; format: ADME, Microsome
[20] = Metabolic stability in mouse liver microsomes assessed as intrinsic clearance at 10 uM measured for 60 mins by LC-MS/MS analysis; format: ADME, Microsome; details: read-out: CLH
[21] = Metabolic stability in dog liver microsomes assessed as half life at 10 uM measured for 60 mins by LC-MS/MS analysis; format: ADME, Canis lupus familiaris, Microsome
[22] = Metabolic stability in dog liver microsomes assessed as intrinsic clearance at 10 uM measured for 60 mins by LC-MS/MS analysis; format: ADME, Canis lupus familiaris, Microsome; details: read-out: CLH
[23] = biological target: T2, Piezo-type mechanosensitive ion channel component 1; experiment: Agonist activity at human Piezo1 transfected in HEK293T cells by FLIPR assay; format: cell-based

| Compound | Percent change in calcium fluorescence ratio relative to control ([6]; filed as agonist) | Percent change in calcium fluorescence ratio relative to control [6] | also measured |
| --- | --- | --- | --- |
| OCC1CN(c2cnc(-c3nnc(SCc4c(Cl)cccc4Cl)s3)cn2)C1 | – | 11.6% | – |
| OC1CCN(c2cnc(-c3nnc(SCc4c(Cl)cccc4Cl)s3)cn2)CC1 | – | 2% | – |
| O=C1CC2(CCN(c3cnc(-c4nnc(SCc5ccc6scnc6c5)s4)cn3)CC2)CN1 | – | 7.7% | – |
| C[C@@H](O)CNc1cncc(-c2nnc(SCc3c(Cl)cccc3Cl)s2)n1 | 49.7% | – | – |
| Clc1cccc(Cl)c1CSc1nnc(-c2cnc(Br)cn2)s1 | – | 8% | – |
| OCCOCCNc1cnc(-c2nnc(SCc3c(Cl)cccc3Cl)s2)cn1 | 56.3% | – | – |
| NC1=NC(=O)[C@H](CC(=O)Nc2ccc(SC(F)F)cc2)S1 | – | – | EC50 [10]: 12.9 µM |
| Cn1nnc2ccc(CSc3nnc(-c4cnc(N5CCC6(CC5)CNC(=O)C6)cn4)s3)cc21 | – | 38.8% | – |
| CC1(O)CN(c2cnc(-c3nnc(SCc4c(Cl)cccc4Cl)s3)cn2)C1 | – | 16.1% | – |
| OCCCNc1cnc(-c2nnc(SCc3c(Cl)cccc3Cl)s2)cn1 | 65.2% | – | – |
| C[C@@H](O)CNc1cnc(-c2nnc(SC(c3c(Cl)cccc3Cl)C3CC3)s2)cn1 (stereo partly drawn) | 64.6% | – | – |
| FC(F)(F)c1cccc(Cl)c1CSc1nnc(-c2cnccn2)o1 | – | – | Ratio EC50 [11]: 1.25 |
| [2H]C([2H])(Sc1nnc(-c2cnc(NC[C@@H](C)O)cn2)s1)c1c(Cl)cccc1Cl | – | – | Papp [12]: 21 ×10⁻⁶ cm/s; solubility at 10 min [13]: 57.9 µM (≈ 24.9 µg/mL); Activity [14]: Non-toxic; EC50 [15]: 44.2 µM; microsomal CLint at 10 µM [16]: 83.2 µL/min/mg; half-life at 10 µM [17]: 15.7 min; Activity [18]: Non-toxic; half-life at 10 µM [19]: 16.7 min; microsomal CLint at 10 µM [20]: 88.4 µL/min/mg; half-life at 10 µM [21]: 25.5 min; microsomal CLint at 10 µM [22]: 54.4 µL/min/mg |
| Clc1cccc(Cl)c1CSc1nnc(-c2cnccn2)s1 | – | 30.7% | Papp [12]: 38 ×10⁻⁶ cm/s; solubility at 10 min [13]: 3.9 µM (≈ 1.39 µg/mL); EC50 [23]: 17.1 µM; EC50 [15]: 2.21 µM; microsomal CLint at 10 µM [16]: 250 µL/min/mg; half-life at 10 µM [17]: < 5 min; half-life at 10 µM [19]: 5.55 min; microsomal CLint at 10 µM [20]: > 277 µL/min/mg; half-life at 10 µM [21]: 1.33 min; microsomal CLint at 10 µM [22]: 1040 µL/min/mg |
| C[C@@H](O)CNc1ncc(-c2nnc(SCc3c(Cl)cccc3Cl)s2)cn1 | 41.7% | – | – |
| Cn1ncc2cc(CSc3nnc(-c4cnc(N5CCC6(CC5)CNC(=O)C6)cn4)s3)ccc21 | 71.6% | – | – |
| O[C@H]1CCN(c2cnc(-c3nnc(SCc4c(Cl)cccc4Cl)s3)cn2)C1 | – | 30.4% | – |
| Clc1cccc(Cl)c1CSc1nnc(-c2cnc(N3CC4(COC4)C3)cn2)s1 | – | 0.1% | – |
| C[C@@H](O)CNc1ccc(-c2nnc(SCc3c(Cl)cccc3Cl)s2)nn1 | 71.3% | – | – |
| OC1CN(c2cnc(-c3nnc(SCc4c(Cl)cccc4Cl)s3)cn2)C1 | – | 36% | – |
| O=C(O)c1ccc(-c2nnc(SCc3c(Cl)cccc3Cl)s2)cc1 | – | – | Ratio EC50 [11]: 4 |
| O[C@@H]1CN(c2cnc(-c3nnc(SCc4c(Cl)cccc4Cl)s3)cn2)C[C@@H]1O | 74.5% | – | – |
| Cc1nnc(CNC(=O)Nc2ccc(C3CCCCC3)cc2)o1 | – | – | EC50 [10]: > 150 µM |
| O=C1CC2(CCN(c3cnc(-c4nnc(SCc5ccc6ncoc6c5)s4)cn3)CC2)CN1 | – | 31.2% | – |
| FC1(F)CN(c2cnc(-c3nnc(SCc4c(Cl)cccc4Cl)s3)cn2)C1 | – | -8% | – |
| O=C1CC2(CCN(c3cnc(-c4nnc(SCc5c(Cl)cccc5Cl)s4)cn3)CC2)CN1 | 77.3% | – | – |

More lines, main results first:

| Percent change in calcium fluorescence ratio relative to control ([6]; filed as agonist) | Percent change in calcium fluorescence ratio relative to control [6] | Compound | also measured |
| --- | --- | --- | --- |
| 106% | – | C[C@@H](O)CNc1cnc(-c2nnc(SCc3c(Cl)cccc3Cl)s2)cn1 | Activity (Rattus norvegicus [1]): Active; Activty Reached Almost That Of The Weight-Bearing; Activity (Rattus norvegicus [2]): Active; Activity (BMSC [3]): Dose-dependent-effect; Activity (Rattus norvegicus [4]): Active; Activity (BMSC [5]): Active; Percent change in calcium fluorescence ratio relative to control ([6]; filed as agonist, tested as the 2H-labelled form): 170%; Activity (Rattus norvegicus [7]): Active; Ratio EC50 [8]: 20; Activity [9]: Active; The Result Indicates That Compound Emulates Mechanical Stimulation To Activate Piezo1 |
| 45.4% | – | CC(C)(O)[C@H](F)CNc1cnc(-c2nnc(SCc3c(Cl)cccc3Cl)s2)cn1 | – |
| 61.9% | – | C[C@@H](O)CNc1cnc(-c2nnc(SCc3ccccc3Cl)s2)cn1 | – |
| 91.4% | – | C[C@@H](O)CNc1cnc(-c2nnc(SCc3c(Cl)ccc(F)c3Cl)s2)cn1 | – |
| – | 35.4% | C[C@@H](O)CNc1cnc(-c2nnc(SCc3ccc4nnn(C)c4c3)s2)cn1 | – |
| 91.3% | – | CCC(Sc1nnc(-c2cnc(NC[C@@H](C)O)cn2)s1)c1c(Cl)cccc1Cl (stereo partly drawn) | – |
| 164% | – | CC(Sc1nnc(-c2cnc(NC[C@@H](C)O)cn2)s1)c1c(Cl)cccc1Cl (stereo partly drawn) | – |
| 73.5% | – | C[C@@H](O)CNc1cnc(-c2nnc(SCc3ccc4c(cnn4C)c3)s2)cn1 | – |
| – | 21% | C[C@@H](O)CNc1cnc(-c2nnc(SCc3c(F)cccc3F)s2)cn1 | – |
| 76.6% | – | C[C@H](O)CNc1cnc(-c2nnc(SCc3c(Cl)cccc3Cl)s2)cn1 | – |
| 69.7% | – | C[C@@H](O)CNc1cnc(-c2nnc(SCc3c(Cl)ccnc3Cl)s2)cn1 | – |
| 50.4% | – | C[C@@H](O)CNc1cnc(-c2nnc(SCc3ccc4ncoc4c3)s2)cn1 | – |
| – | 15.4% | C[C@@H](O)CNc1cnc(-c2nnc(SCc3ccc4scnc4c3)s2)cn1 | – |
